Measurements from patent US20150335738A1 (priority 2012, published 2015).

Test system: human SIgA in faeces
Assay type: in vivo

Q: `CC1=C(/C=C/C(C)=C/C=C/C(C)=C/C=C/C=C(C)/C=C/C=C(C)/C=C/C2=C(C)CCCC2(C)C)C(C)(C)CCC1` [Beta-carotene, beta-carotene] was tested. Which “SIgA faeces, 3 days before exercise” value (3 days before exercise) did it give?
A: 88 micrograms per 100 g faeces

Q: And the Recovery in faeces (Reference (before exercise) = 100%)?
A: 13%

Q: What about the “SIgA faeces, day 1 after exercise” value (day 1 after exercise) of the same molecule?
A: 8 micrograms per 100 g faeces

Q: What about the “SIgA faeces, day 6 after exercise” value (day 6 after exercise) of the same molecule?
A: 11 micrograms per 100 g faeces
